Measured values: ChEMBL document CHEMBL1201862, “PubChem BioAssay data set” (2004)
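Results reflect a 48-hour exposure of cells in 96-well plates to compound at five concentrations. GI50 marks 50% less growth.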 Activity calls are given as the source filed them. Rule as the data show it: active = GI50 up to about 1.1 µM and inactive = higher.

Columns and labels:
Test in all cases: NCI tumour cell line growth inhibition, 48 h
Malme-3M = test system: Malme-3M
U-251 = test system: U-251
ACHN = test system: ACHN
DU-145 = test system: DU-145
IGROV-1 = test system: IGROV-1
786-0 = test system: 786-0
CCRF-CEM = test system: CCRF-CEM
T47D = test system: T47D
RPMI-8226 = test system: RPMI-8226
Hs-578T = test system: Hs-578T
A549 = test system: A549
SR = test system: SR
SW-620 = test system: SW-620
CAKI-1 = test system: CAKI-1
SNB-75 = test system: SNB-75
A498 = test system: A498
SK-OV-3 = test system: SK-OV-3
SN12C = test system: SN12C
K562 = test system: K562
MOLT-4 = test system: MOLT-4
HCT-15 = test system: HCT-15
OVCAR-3 = test system: OVCAR-3
HOP-92 = test system: HOP-92
LOX IMVI = test system: LOX IMVI
HT-29 = test system: HT-29
HCC 2998 = test system: HCC 2998
BT-549 = test system: BT-549
NCI-H460 = test system: NCI-H460
OVCAR-4 = test system: OVCAR-4
SNB-19 = test system: SNB-19
MCF7 = test system: MCF7
NCI-H522 = test system: NCI-H522
MDA-MB-231 = test system: MDA-MB-231
SK-MEL-28 = test system: SK-MEL-28
NCI/ADR-RES = test system: NCI/ADR-RES
KM12 = test system: KM12
SF-539 = test system: SF-539
SK-MEL-2 = test system: SK-MEL-2
SK-MEL-5 = test system: SK-MEL-5
M14 = test system: M14
NCI-H23 = test system: NCI-H23
MDA-N = test system: MDA-N
UACC-62 = test system: UACC-62
PC-3 = test system: PC-3
UACC-257 = test system: UACC-257
MDA-MB-435 = test system: MDA-MB-435
OVCAR-8 = test system: OVCAR-8
UO-31 = test system: UO-31
SF-268 = test system: SF-268
HOP-62 = test system: HOP-62
EKVX = test system: EKVX
HCT-116 = test system: HCT-116
HL-60 = test system: HL-60
SF-295 = test system: SF-295
COLO 205 = test system: COLO 205
TK-10 = test system: TK-10
NCI-H226 = test system: NCI-H226
OVCAR-5 = test system: OVCAR-5
RXF 393 = test system: RXF 393

SMILES: O=C(CC(c1ccccc1)C1C(=O)NC(=S)NC1=O)c1ccc([N+](=O)[O-])cc1 (stereo not given)
- GI50 (Malme-3M): > 100 µM (inactive)
- GI50 (U-251): > 100 µM (inactive)
- GI50 (ACHN): > 100 µM (inactive)
- GI50 (DU-145): > 100 µM (inactive)
- GI50 (IGROV-1): > 100 µM (inactive)
- GI50 (786-0): > 100 µM (inactive)
- GI50 (CCRF-CEM): > 100 µM (inactive)
- GI50 (T47D): 17.8 µM (inactive)
- GI50 (RPMI-8226): 45.9 µM (inactive)
- GI50 (Hs-578T): > 100 µM (inactive)
- GI50 (A549): > 100 µM (inactive)
- GI50 (SR): 41.1 µM (inactive)
- GI50 (SW-620): > 100 µM (inactive)
- GI50 (CAKI-1): 22.4 µM (inactive)
- GI50 (SNB-75): > 100 µM (inactive)
- GI50 (A498): > 100 µM (inactive)
- GI50 (SK-OV-3): > 100 µM (inactive)
- GI50 (SN12C): > 100 µM (inactive)
- GI50 (K562): > 100 µM (inactive)
- GI50 (MOLT-4): > 100 µM (inactive)
- GI50 (HCT-15): > 100 µM
- GI50 (OVCAR-3): > 100 µM (inactive)
- GI50 (HOP-92): > 100 µM (inactive)
- GI50 (LOX IMVI): 63.4 µM (inactive)
- GI50 (HT-29): > 100 µM (inactive)
- GI50 (HCC 2998): 31.6 µM (inactive)
- GI50 (BT-549): > 100 µM (inactive)
- GI50 (NCI-H460): > 100 µM (inactive)
- GI50 (OVCAR-4): > 100 µM (inactive)
- GI50 (SNB-19): > 100 µM (inactive)
- GI50 (MCF7): 17.7 µM (inactive)
- GI50 (NCI-H522): > 100 µM (inactive)
- GI50 (MDA-MB-231): > 100 µM (inactive)
- GI50 (SK-MEL-28): > 100 µM (inactive)
- GI50 (NCI/ADR-RES): > 100 µM (inactive)
- GI50 (KM12): 65.2 µM (inactive)
- GI50 (SF-539): > 100 µM (inactive)
- GI50 (SK-MEL-2): > 100 µM (inactive)
- GI50 (SK-MEL-5): > 100 µM (inactive)
- GI50 (M14): > 100 µM (inactive)
- GI50 (NCI-H23): > 100 µM (inactive)
- GI50 (MDA-N): > 100 µM (inactive)
- GI50 (UACC-62): > 100 µM (inactive)
- GI50 (PC-3): > 100 µM (inactive)
- GI50 (UACC-257): > 100 µM (inactive)
- GI50 (MDA-MB-435): > 100 µM (inactive)
- GI50 (OVCAR-8): > 100 µM (inactive)
- GI50 (UO-31): > 100 µM (inactive)
- GI50 (SF-268): 72.8 µM (inactive)
- GI50 (HOP-62): > 100 µM (inactive)
- GI50 (EKVX): 31.8 µM (inactive)
- GI50 (HCT-116): 76.6 µM (inactive)
- GI50 (HL-60): > 100 µM (inactive)
- GI50 (SF-295): > 100 µM (inactive)
- GI50 (COLO 205): > 100 µM (inactive)
- GI50 (TK-10): > 100 µM (inactive)
- GI50 (NCI-H226): > 100 µM (inactive)
- GI50 (OVCAR-5): > 100 µM (inactive)

SMILES: O=C(Nn1c(-c2ccccc2)nc2ccccc2c1=O)c1ccccc1O
- GI50 (Malme-3M): 25.7 µM (inactive)
- GI50 (U-251): 44.5 µM (inactive)
- GI50 (ACHN): 37.8 µM (inactive)
- GI50 (DU-145): 49.1 µM (inactive)
- GI50 (IGROV-1): 32.2 µM (inactive)
- GI50 (786-0): 65.2 µM (inactive)
- GI50 (CCRF-CEM): 25.2 µM (inactive)
- GI50 (T47D): 42.3 µM (inactive)
- GI50 (RPMI-8226): 51.5 µM (inactive)
- GI50 (Hs-578T): > 100 µM (inactive)
- GI50 (A549): 36.8 µM (inactive)
- GI50 (SR): 32.8 µM (inactive)
- GI50 (SW-620): 41.2 µM (inactive)
- GI50 (SNB-75): > 100 µM (inactive)
- GI50 (A498): 71.6 µM (inactive)
- GI50 (SK-OV-3): 58.9 µM (inactive)
- GI50 (SN12C): 37.2 µM (inactive)
- GI50 (K562): 54 µM (inactive)
- GI50 (MOLT-4): 24 µM (inactive)
- GI50 (HCT-15): 29.4 µM
- GI50 (OVCAR-3): 30.3 µM (inactive)
- GI50 (HOP-92): 27.2 µM (inactive)
- GI50 (LOX IMVI): 48.6 µM (inactive)
- GI50 (HT-29): 61.2 µM (inactive)
- GI50 (HCC 2998): 70.1 µM (inactive)
- GI50 (BT-549): 38.6 µM (inactive)
- GI50 (NCI-H460): 41.8 µM (inactive)
- GI50 (OVCAR-4): 30.7 µM (inactive)
- GI50 (SNB-19): 45 µM (inactive)
- GI50 (MCF7): 28.1 µM (inactive)
- GI50 (NCI-H522): 32.9 µM (inactive)
- GI50 (MDA-MB-231): 53.5 µM (inactive)
- GI50 (SK-MEL-28): 39.3 µM (inactive)
- GI50 (NCI/ADR-RES): 34.4 µM (inactive)
- GI50 (KM12): 60.1 µM (inactive)
- GI50 (SF-539): 33.7 µM (inactive)
- GI50 (SK-MEL-5): 19.4 µM (inactive)
- GI50 (M14): 51.1 µM (inactive)
- GI50 (NCI-H23): 34.4 µM (inactive)
- GI50 (MDA-N): 66.2 µM (inactive)
- GI50 (UACC-62): 23.4 µM (inactive)
- GI50 (PC-3): 28.9 µM (inactive)
- GI50 (UACC-257): 45.6 µM (inactive)
- GI50 (MDA-MB-435): 49.4 µM (inactive)
- GI50 (OVCAR-8): 38.5 µM (inactive)
- GI50 (UO-31): 36.7 µM (inactive)
- GI50 (SF-268): 45.7 µM (inactive)
- GI50 (HOP-62): 76.9 µM (inactive)
- GI50 (EKVX): > 100 µM (inactive)
- GI50 (HCT-116): 33.5 µM (inactive)
- GI50 (HL-60): 27.8 µM (inactive)
- GI50 (SF-295): 63.2 µM (inactive)
- GI50 (COLO 205): 67.3 µM (inactive)
- GI50 (RXF 393): 28.2 µM (inactive)
- GI50 (TK-10): 75.9 µM (inactive)
- GI50 (NCI-H226): 38.9 µM (inactive)
- GI50 (OVCAR-5): 49.4 µM (inactive)
